Experimental findings from patent US12369584B2, “Fungicide mixtures” (LANXESS Deutschland GmbH, priority 2019, dated 2025) are described below.

By MIC is commonly meant the least concentration at which growth counts as inhibited.

Holding throughout (assay): MIC on nutrient agar and synergistic index (Kull)
Holding throughout (assay type): cell-based

In one assay the test system is Paecilomyces variotii. The text has this:
(§1) The term synergism is used when the action of a combination of antimicrobial substances is being evaluated.
(§2) The synergism found for the mixtures according to the invention can be determined via the following mathematical formula (cf. F. C. Kull, P. C. Elisman, H. D. Sylwestrowicz and P. K. Mayer, Appl. Microbiol. 9, 538 (1961):
(§3) Qa=amount of component A in the active substance mixture which achieves the desired effect, i. e. no microbial growth,
(§4) QA=amount of component A which, when used alone, suppresses the growth of the microorganisms,
(§5) Qb=amount of component B in the active substance mixture which suppresses the growth of the microorganisms,
(§6) QB=amount of component B which, when used alone, suppresses the growth of the microorganisms
(§7) If the sum of the ratios for a mixture Qa/QA+Qb/QB=1, additivity is indicated; if it is <1, synergism has occurred; a value of >1 is indicative of antagonism.
(§8) To determine the antimicrobial efficacy and synergy of active ingredients mixtures, the Minimum Inhibitory Concentration (MIC) of the active substances and their respective combinations were determined. The Minimum Inhibitory Concentration of a given antimicrobial compound or mixture is the lowest concentration expressed in […] that under defined in vitro conditions inhibits the growth of a given micro-organism (for example bacteria, mould fungi, yeasts). The growth of the microorganisms is observed on petri dishes containing a defined nutrient agar.
(§9) The antimicrobial efficacy and synergy of combinations based on TBZ, PYM and FDL were determined.

Another assay concerns Chaetomium globosum.
Source text: as §1, §2, §3, §4, §5, §6, §7, §8, §9

The next assay deals with Stachybotris chartarum.
Source text: as §1, §2, §3, §4, §5, §6, §7, §8, §9

Another assay concerns Aureobasidium pullulans.
Source text: as §1, §2, §3, §4, §5, §6, §7, §8, §9

The subject of a further assay is Alternaria alternata.
Source text: as §1, §2, §3, §4, §5, §6, §7, §8, §9

The mark [1] stands for this setting: Stachybotris chartarum, nutrient agar, read-out: MIC.

Read-outs that look alike come from different tables or passages of the source.

As for `N#Cc1c[nH]cc1-c1cccc2c1OC(F)(F)O2` [FDL, fludioxonil], the MIC in the assay on Paecilomyces variotii turned out to be 175 µg/mL; in the assay with Chaetomium globosum it was 1500 µg/mL; in the assay on Stachybotris chartarum, 5 µg/mL; in the assay with Aureobasidium pullulans, 1500 µg/mL; in the assay with Alternaria alternata it was 5 µg/mL.

Regarding `Cc1cc(C)nc(Nc2ccccc2)n1` [PYM, pyrimethanil], the MIC with Paecilomyces variotii (nutrient agar, read-out: MIC) came to 90 µg/mL; with Chaetomium globosum (nutrient agar, read-out: MIC), 250 µg/mL; in the assay with Stachybotris chartarum (setting [1]) it was 100 µg/mL; with Aureobasidium pullulans (nutrient agar, read-out: MIC), 175 µg/mL; with Alternaria alternata (nutrient agar, read-out: MIC), 25 µg/mL.

As to `c1ccc2[nH]c(-c3cscn3)nc2c1` [TBZ, thiabendazole], the MIC stood at 5 µg/mL in the assay with Paecilomyces variotii (nutrient agar, read-out: MIC); 5 µg/mL with Chaetomium globosum (nutrient agar, read-out: MIC); 50 µg/mL with Stachybotris chartarum (setting [1]); 5 µg/mL with Aureobasidium pullulans (nutrient agar, read-out: MIC); 250 µg/mL in the assay with Alternaria alternata (nutrient agar, read-out: MIC).
